What was measured:
[1] = biological target: KRAS G12D (Homo sapiens, UniProt P01116, G12D); assay: SOS-catalyzed nucleotide exchange assay, KRAS G12D (Procedure A); type: biochemical; conditions: guanine nucleotide exchange (GNE)
Source text: (§1) Procedure for SOS-Catalyzed Nucleotide Exchange Assay for KRAS-WT, G12C/D/V, G13D, HRAS, and NRAS (Procedure A)
(§2) Recombinant KRAS-G12C protein used in this assay has an additional triple mutation (C51S/C80L/C118S). Whereas KRAS-WT, G12D/V, G13D, HRAS and NRAS are in context of their WT protein sequence background. Specifically, the SOS-catalyzed nucleotide exchange assay utilizes a preformed TR-FRET complex containing a specific biotinylated RAS protein (KRAS-WT, G12C/V/D, G13D, HRAS, NRAS; described above) with Bodipy-GDP, and Terbium-streptavidin. Compounds are preincubated with this complex for 60 minutes. Subsequently, recombinant human SOS protein and unlabeled GTP are added to initiate the exchange reaction. Small molecule inhibitors stabilize the Bodipy-GDP complex whereas the untreated protein rapidly exchanges Bodipy-GDP for unlabeled GTP resulting in reduced TR-FRET signal.
(§3) To assemble the preformed TR-FRET complexes, each biotinylated RAS protein is diluted to 2 μM in an EDTA Buffer (20 mM HEPES pH 7.5, 50 mM sodium chloride, 10 mM EDTA, and 0.01% Tween) and incubated at room temperature for one hour. This mixture is then further diluted to 90 nM in an Assay Buffer (20 mM HEPES pH 7.5, 150 mM sodium chloride, 10 mM magnesium chloride, and 0.005% Tween) containing 15 nM of Terbium-Streptavidin (Invitrogen, catalog #PV3577) and 900 nM of Bodipy-GDP (Invitrogen, catalog #G22360) and incubated at room temperature for six hours. It should be noted that this preformed TR-FRET complex for each of the RAS protein were made ahead of time, aliquoted and stored at −80° C. until the day of the experiment.
(§4) Each test compound (10 mM stock in DMSO) is diluted in DMSO to make a final-10-point, 3-fold dilution and is acoustically dispensed into a 384-well assay plate (Corning, catalog #3820) using an Echo 550 (Labcyte). Each well of the assay plate receives 3 μL of a specific 3×RAS preformed TR-FRET complex and 3 μL of Assay Buffer and is incubated at room temperature for 60 minutes (preincubation time). Each well then receives 3 μL of 3× recombinant human SOS protein and GTP (Sigma, G8877) in Assay Buffer and is incubated at room temperature for 30 minutes (G13D), 60 minutes (KRAS WT/G12C/D, H/NRAS) or 90 minutes for G12V. The final reaction in each well of 9 μL consists of 3 mM GTP, specific Ras and SOS proteins in the following concentrations: KRAS-G12C/SOS=3 nM/40 nM, KRAS-WT and G12D/SOS=1 nM/40 nM, KRAS-G12V/SOS=1.25 nM/160 nM, KRAS-G13D/SOS=1.25 nM/0 nM, HRAS and NRAS=1.25 nM/40 nM.
(§5) The time-resolved fluorescence resonance energy transfer (TR-FRET) signal is measured on an Envision (PerkinElmer) plate reader: Excitation filter=340 nm; emission1=495 nm; emission2=520 nm; dichroic mirror=D400/D505; delay time=[…]. The signal of each well is determined as the ratio of the emission at 520 nm to that at 495 nm. Percent effect of each well is determined after normalization to control wells containing DMSO (no effect) or a saturating concentration of inhibitor (max effect). The apparent effect as a function of compound concentration is fit to a four-parameter logistic equation.
(§6) For Example No. 14, nucleotide exchange assays for KRAS G12D, WT, G12C, and G12V were performed according to Procedure B. All the other compounds were tested according to Procedure A.

[2] = biological target: KRAS WT (Homo sapiens, UniProt P01116); assay: SOS-catalyzed nucleotide exchange assay, KRAS WT (Procedure A); type: biochemical; conditions: GNE
Source text: as §1, §2, §3, §4, §5, §6

[3] = biological target: KRAS G12V (Homo sapiens, UniProt P01116, G12V); assay: SOS-catalyzed nucleotide exchange assay, KRAS G12V (Procedure A); type: biochemical; conditions: GNE
Source text: as §1, §2, §3, §4, §5, §6

[4] = biological target: T1, AsPC-1 cells (Homo sapiens, UniProt P01116, G12D); assay: Cellular phospho-ERK assay, AsPC-1 cells (KRAS G12D); type: cell-based; conditions: 2 hours, read-out: AsPC1 pERK IC50
T1 construct: p-ERK/total ERK AlphaSureFire read-out
Experimental: Procedure for Cellular Phospho-ERK Assay in KRAS Wild Type and Mutant (G12D, G12V) Cell Lines
PANC08.13 cells (ATCC® CRL-2551™), containing homozygous KRAS-G12D activating mutation, were cultured in growth medium made of RPMI1640-GlutaMAX™-I (ThermoFisher Scientific 61870) containing 15% heat inactivated fetal bovine serum (ThermoFisher Scientific 10091148)). AsPC-1 cells (ATCC® CRL-1682™), containing homozygous KRAS-G12D activating mutation, were cultured in T150 flask in growth medium (RPMI medium 1640-GlutaMAX™-I (ThermoFisher Scientific 61870) containing 10% fetal bovine serum (ThermoFisher Scientific 10091148)).
Cells for the assay were harvested in growth medium after TrypLE (ThermoFisher scientific 12604021) digestion and were seeded in a 384-well collagen coated cell culture plate (Corning 356702) at a density of 10,000-15,000 cells/20 μL/well, and incubated at 37° C., 5% CO2 overnight. The compound (with 10 mM stock concentration) dose-response titrations were prepared [30 μM final ERK detection assay concentration and 1:3 dilutions, 10-point dose response] and appropriate amounts (270 nL) of test compounds were dispensed in a 384-well intermediate plate using an Echo 550 liquid handler. 30 μL/well of RPMI medium 1640-GlutaMAX™-I was added to the intermediate plate and the contents of the intermediate plate (10 μL/well) were then transferred to the 384-well collagen coated cell culture plate, which was incubated at 37° C., 5% CO2 for 2 hours. After removal of medium from the collagen coated cell culture plate, cells were lysed in lysis buffer from Alpha SureFire® Ultra™ Multiplex p-ERK and total ERK assay kit (PerkinElmer MPSU-PTERK) containing Halt™ Protease and Phosphatase inhibitor cocktail (ThermoFisher Scientific 78446) at room temperature with constant shaking at 300 rpm for 30 minutes. The cell lysates were then transferred to an OptiPlate-384 plate (PerkinElmer 6005620), and the phosphorylation of ERK (p-ERK) and total ERK levels were detected by Alpha SureFire® Ultra™ Multiplex p-EEK kit and total ERK assay kit (PerkinElmer MPSU-PTERK) following the manufacturer's protocol. Assay plates were read on a EnVision Multimode Plate Reader (PerkinElmer), and the ratio of p-ERK vs. total ERK in each well was used as the final readout. Dose response curves were analyzed using a 4-parameter logistic model to calculate IC50 values using Spotfire software.

T1 sequence (P01116 1-188 isoform P01116-2 G12D): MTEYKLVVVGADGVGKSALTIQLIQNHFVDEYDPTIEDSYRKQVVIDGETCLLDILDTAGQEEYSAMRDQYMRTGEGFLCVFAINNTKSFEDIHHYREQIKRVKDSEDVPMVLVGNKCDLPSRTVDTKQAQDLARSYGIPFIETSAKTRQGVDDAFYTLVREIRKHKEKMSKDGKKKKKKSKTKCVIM
Chain of KRAS WT (P01116 with tags, fused parts or gaps isoform P01116-2): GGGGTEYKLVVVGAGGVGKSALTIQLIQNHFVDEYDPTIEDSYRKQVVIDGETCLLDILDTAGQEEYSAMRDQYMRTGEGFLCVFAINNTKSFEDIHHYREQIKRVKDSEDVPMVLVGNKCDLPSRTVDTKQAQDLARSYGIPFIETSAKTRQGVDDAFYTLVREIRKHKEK
Chain of KRAS G12V (P01116 with tags, fused parts or gaps isoform P01116-2 G12V): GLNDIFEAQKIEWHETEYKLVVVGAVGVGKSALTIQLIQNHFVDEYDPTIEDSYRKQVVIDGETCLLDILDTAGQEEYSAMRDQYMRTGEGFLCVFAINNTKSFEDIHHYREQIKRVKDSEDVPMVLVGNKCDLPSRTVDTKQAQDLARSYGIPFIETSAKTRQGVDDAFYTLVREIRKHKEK
Chain of KRAS G12D (P01116 with tags, fused parts or gaps isoform P01116-2 G12D): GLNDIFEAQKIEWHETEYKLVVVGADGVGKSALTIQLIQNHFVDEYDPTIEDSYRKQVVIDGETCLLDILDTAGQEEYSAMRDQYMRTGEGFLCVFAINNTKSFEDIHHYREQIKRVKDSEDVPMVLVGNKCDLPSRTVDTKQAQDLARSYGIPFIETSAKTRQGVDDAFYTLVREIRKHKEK

| IC50 [1] [nM] | IC50 [2] [µM] | IC50 [3] [µM] | IC50 [4] [µM] | SMILES |
| --- | --- | --- | --- | --- |
| 3200 | > 11.1 | > 11.1 | > 30 | COC1(COc2nc(N3C[C@H]4CC[C@@H](C3)N4)c3c(n2)sc2c(-c4c(C(F)(F)F)c(C)cc5[nH]ncc45)nccc23)CC1 [Ex-26, 4-((1R,5S)-3,8-diazabicyclo[3.2.1]octan-3-yl)-2-((1-methoxycyclopropyl)methoxy)-8-(6-methyl-5-(trifluoromethyl)-1H-indazol-4-yl)pyrido[4′,3′:4,5]thieno[2,3-d]pyrimidine] |
| 3590 | > 11.1 | > 11.1 | 5.73 | Cc1cc2[nH]ncc2c(-c2nccc3c2sc2nc(OCC4CS(=O)(=O)C4)nc(N4C[C@H]5CC[C@@H](C4)N5)c23)c1C(F)(F)F [Ex-27, 3-(((4-((1R,5S)-3,8-diazabicyclo[3.2.1]octan-3-yl)-8-(6-methy1-5-(trifluoromethyl)-1H-indazol-4-yl)pyrido[4′,3′:4,5]thieno[2,3-d]pyrimidin-2-yl)oxy)methyl)thietane 1,1-dioxide] |
| 3340 | > 11.1 | > 11.1 | > 30 | Cc1cc2[nH]ncc2c(-c2nccc3c2sc2nc(OCC45COC(CF)(C4)C5)nc(N4C[C@H]5CC[C@@H](C4)N5)c23)c1C(F)(F)F [Ex-28, 4-((1R,5S)-3,8-diazabicyclo[3.2.1]octan-3-yl)-2-((1-(fluoromethyl)-2-oxabicyclo[2.1.1]hexan-4-yl)methoxy)-8-(6-methy1-5-(trifluoromethyl)-1H-indazol-4-yl)pyrido[4′,3′:4,5]thieno[2,3-d]pyrimidine] |
| 2480 | > 11.1 | > 11.1 | > 30 | Cc1cc2[nH]ncc2c(-c2nccc3c2sc2nc(OC[C@H]4C[C@H](S(C)(=O)=O)C4)nc(N4C[C@H]5CC[C@@H](C4)N5)c23)c1C(F)(F)F [Ex-29, 4-((1R,5S)-3,8-diazabicyclo[3.2.1]octan-3-yl)-8-(6-methyl-5-(trifluoromethyl)-1H-indazol-4-yl)-2-(((1r,3R)-3-(methylsulfonyl)cyclobutyl)meth-oxy)pyrido[4′,3′:4,5] thieno[2,3-d]pyrimidine] |
| 2600 | > 11.1 | > 11.1 | > 30 | Cc1cc2[nH]ncc2c(-c2nccc3c2sc2nc(OCC4CCS(=O)(=O)C4)nc(N4C[C@H]5CC[C@@H](C4)N5)c23)c1C(F)(F)F (stereo partly drawn) [Ex-30, 3-(((4-((1R,5S)-3,8-diazabicyclo[3.2.1]octan-3-yl)-8-(6-methyl-5-(trifluoromethyl)-1H-indazol-4-yl)pyrido[4′,3′:4,5]thieno[2,3-d]pyrimidin-2-yl)oxy)methyl)tetrahydrothio-phene 1,1-dioxide] |
| 7790 | > 11.1 | > 11.1 | > 30 | Cc1cc2[nH]ncc2c(-c2nccc3c2sc2nc(OCC4CCS4(=O)=O)nc(N4C[C@H]5CC[C@@H](C4)N5)c23)c1C(F)(F)F (stereo partly drawn) [Ex-31, 2-(((4-((1R,5S)-3,8-diazabicyclo[3.2.1]octan-3-yl)-8-(6-methyl-5-(trifluoromethyl)-1H-indazol-4-yl)pyrido[4′,3′:4,5]thieno[2,3-d]pyrimidin-2-yl)oxy)methyl)thietane 1,1-dioxide] |
| 5880 | > 11.1 | > 11.1 | > 30 | Cc1cc2[nH]ncc2c(-c2nccc3c2sc2nc(OCCN4CCOC4=O)nc(N4C[C@H]5CC[C@@H](C4)N5)c23)c1C(F)(F)F [Ex-40, 3-(2-((4-((1R,5S)-3,8-diazabicyclo[3.2.1]octan-3-yl)-8-(6-methyl-5-(trifluoromethyl)-1H-indazol-4-yl)pyrido[4′,3′:4,5]thieno[2,3-d]pyrimidin-2-yl)oxy)ethyl)oxazolidin-2-one] |
| 4.45 | 0.225 | 0.283 | 0.0318 | C#Cc1c(F)ccc2cc3[nH]ncc3c(-c3nccc4c3sc3nc(OC[C@@]56CCCN5C[C@H](F)C6)nc(N5C[C@H]6CC[C@@H](C5)N6)c34)c12 [Ex-56] |
| 23.6 | 2.89 | 2.09 | 0.299 | Fc1ccc2cc3[nH]ncc3c(-c3nccc4c3sc3nc(OC[C@@]56CCCN5C[C@H](F)C6)nc(N5C[C@H]6CC[C@@H](C5)N6)c34)c2c1 [Ex-57, 4-((1R,5S)-3,8-diazabicyclo[3.2.1]octan-3-yl)-8-(6-fluoro-1H-benzo[f]indazol-4-yl)-2-(((2R,7aS)-2-fluorotetrahydro-1H-pyrrolizin-7a(5H)-yl)methoxy)pyri-do[4′,3′:4,5] thieno[2,3-d]pyrimidine] |
| 9.3 | 1.83 | 2.56 | 0.447 | F[C@H]1CN2CCC[C@@]2(COc2nc(N3C[C@H]4CC[C@@H](C3)N4)c3c(n2)sc2c(-c4c5cn[nH]c5cc5cccc(Cl)c45)nccc23)C1 [Ex-58, 4-((1R,5S)-3,8-diazabicyclo[3.2.1]octan-3-yl)-8-(5-chloro-1H-benzo[/]indazol-4-yl)-2-(((2R,7aS)-2-fluorotetrahydro-1H-pyrrolizin-7a(5H)-yl)methoxy)pyrido[4′,3′:4,5]thieno[2,3-d]pyrimidine] |
| 38.1 | 3.68 | > 11.1 | 0.629 | Cc1cc2[nH]ncc2c(-c2nccc3c2sc2nc(OC[C@@]45CCCN4C[C@H](F)C5)nc(N4C[C@@H]5CC[C@H]4CN5)c23)c1C(F)(F)F [Ex-75, 4-((1S,4S)-2,5-diazabicyclo[2.2.2]octan-2-yl)-2-(((2R,7aS)-2-fluorotetrahydro-1H-pyrrolizin-7a(5H)-yl)methoxy)-8-(6-methyl-5-(trifluoromethyl)-1H-indazol-4-yl)pyrido[4′,3′:4,5]thieno[2,3-d]pyrimidine] |
